Experimental data reported in patent US11918626B2, “Vasointestinal peptide receptor inhibitors for enhancement of gastrointestinal health” (New York University, priority 2019, dated 2024).

Columns and labels:
ILC3 = assay: Pilot experiments with CNO in C57BL/6 mice; type: in vivo; conditions: 1 mg/Kg intraperitoneally each 12 h, C57BL/6 mice without DREADD, data not shown
hM3Dq = biological target: T1, hM3Dq (Homo sapiens, UniProt P20309, A239G/Y149C); assay: VIPen activation with activating DREADD (hM3Dq), 24 h; type: in vivo, mice; conditions: following VIPen activation, versus vehicle
T1 construct: host or cells: VIP-producing enteric neurons of Vip-IRES-Cre x hM3Dq fl-stop-fl transgenic mice (in vivo)
T1 sequence (P20309 whole entry Y149C/A239G): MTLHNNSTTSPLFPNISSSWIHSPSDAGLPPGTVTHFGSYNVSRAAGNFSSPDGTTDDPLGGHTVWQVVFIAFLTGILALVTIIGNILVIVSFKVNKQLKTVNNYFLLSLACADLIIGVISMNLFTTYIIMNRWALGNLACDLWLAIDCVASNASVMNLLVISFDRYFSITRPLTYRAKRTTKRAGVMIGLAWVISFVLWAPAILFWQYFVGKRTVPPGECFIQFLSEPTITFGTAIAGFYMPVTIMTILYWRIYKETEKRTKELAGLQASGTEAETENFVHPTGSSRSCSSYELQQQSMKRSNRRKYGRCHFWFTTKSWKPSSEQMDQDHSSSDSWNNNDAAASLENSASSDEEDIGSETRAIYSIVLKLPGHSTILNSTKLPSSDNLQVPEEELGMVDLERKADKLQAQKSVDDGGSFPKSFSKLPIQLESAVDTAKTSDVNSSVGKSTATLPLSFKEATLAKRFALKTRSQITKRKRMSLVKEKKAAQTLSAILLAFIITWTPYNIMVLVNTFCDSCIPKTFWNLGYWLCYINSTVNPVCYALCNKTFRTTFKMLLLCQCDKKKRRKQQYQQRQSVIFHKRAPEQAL
Experimental: (§1) To perform chemogenetic activation or inhibition of VIPen, we bred VIP^IRES-Cre homozygous mice to hM3Dq^fl-stop-fl mice (DREADD for activation) or hM4Di^fl-stop-fl bp-mice (DREADD for inhibition), generating VIP^IRES-Cre hM3Dq^fl-stop-fl (VIPen activation) and VIP^IRES-Cre hM3Dq^fl-stop-flhM4Di^fl-stop-fl mice (VIPen inhibition). To perform 24 h activation of the DREADDs, mice were treated with Clozapine-N-Oxide (CNO, 1 mg/Kg intraperitoneally, TOCRIS) each 12 h. […] To perform activation of the DREADDs during Citrobacter rodentium infection, mice were treated daily with CNO (1 mg/Kg, intraperitoneally) from day 1 to day 4 after infection. […]
(§2) Live/dead fixable blue (ThermoFisher) or DAPI (ThermoFisher) were used to exclude dead cells. […] Flow cytometric analysis was performed on an LSR II (BD Biosciences) or an Aria II (BD Biosciences) and analyzed using FlowJo software version 10 (Tree Star).
(§3) TRNA isolation of ileal epithelial cells was performed using TRIzol following manufacturer's instructions (Invitrogen) followed by DNase I (Qiagen) treatment and cleanup with RNeasy MinElute kit (Qiagen) following manufacturer protocols. cDNA was generated using SuperScript™ IV First-Strand Synthesis System (ThermoFisher). […] Quantitative PCR was performed using the Hot Start-IT SYBRGreen (Affymetrix) on the Roche real-time PCR system (Roche 480). […]

hM4Di = biological target: T2, hM4Di (Homo sapiens, UniProt P08173, A203G/Y113C); assay: VIPen inhibition with inhibitory DREADD (hM4Di), 24 h; type: in vivo, mice; conditions: versus vehicle
T2 construct: host or cells: VIP-producing enteric neurons of Vip-IRES-Cre x hM4Di fl-stop-fl transgenic mice (in vivo)
T2 sequence (P08173 1-479 Y113C/A203G): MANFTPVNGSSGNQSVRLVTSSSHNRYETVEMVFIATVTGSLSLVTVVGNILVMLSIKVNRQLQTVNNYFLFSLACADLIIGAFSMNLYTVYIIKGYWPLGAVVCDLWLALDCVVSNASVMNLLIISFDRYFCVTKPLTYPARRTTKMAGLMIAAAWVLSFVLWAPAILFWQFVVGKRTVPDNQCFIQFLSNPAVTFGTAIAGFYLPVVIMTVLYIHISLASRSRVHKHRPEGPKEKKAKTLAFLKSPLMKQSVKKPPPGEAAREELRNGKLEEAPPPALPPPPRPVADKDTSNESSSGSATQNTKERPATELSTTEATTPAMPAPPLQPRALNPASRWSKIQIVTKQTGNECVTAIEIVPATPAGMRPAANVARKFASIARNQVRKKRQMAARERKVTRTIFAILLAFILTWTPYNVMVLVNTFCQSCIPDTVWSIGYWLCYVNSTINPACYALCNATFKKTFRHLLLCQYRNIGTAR
Experimental: as §1, §2, §3

C. rodentium [1] = assay: C. rodentium infection of Vip-IRES-Cre hM4Di mice (VIPen inhibition); type: in vivo, Citrobacter rodentium; conditions: 1 mg/Kg daily 1-4 d.p.i., 4×10^10 CFU, 9 d.p.i., mice positive/total
Experimental: (§4) To perform chemogenetic activation or inhibition of VIPen, we bred VIP^IRES-Cre homozygous mice to hM3Dq^fl-stop-fl mice (DREADD for activation) or hM4Di^fl-stop-fl bp-mice (DREADD for inhibition), generating VIP^IRES-Cre hM3Dq^fl-stop-fl (VIPen activation) and VIP^IRES-Cre hM3Dq^fl-stop-flhM4Di^fl-stop-fl mice (VIPen inhibition). To perform 24 h activation of the DREADDs, mice were treated with Clozapine-N-Oxide (CNO, 1 mg/Kg intraperitoneally, TOCRIS) each 12 h. […] To perform activation of the DREADDs during Citrobacter rodentium infection, mice were treated daily with CNO (1 mg/Kg, intraperitoneally) from day 1 to day 4 after infection.
C. rodentium strain DBS100 (ATCC51459; American Type Culture Collection) was grown at 37° C. in LB broth to OD600 reading between 0.5 and 0.7. VIP^IRES-CrehM3Dq^fl-stop-fl (VIPen activation) and C57BL/6 mice were inoculated with 200 μl of a bacterial suspension (2×10^9 CFU) by oral gavage. VIP^IRES-Cre hM3Dq^fl-stop-flhM4Di^fl-stop-fl mice (VIPen inhibition) were inoculated with 200 μl of a bacterial suspension (4×10^10 CFU) by oral gavage. For DREADD experiments, CNO treatment started at 1 day post-infection (d.p.i.) until 4 d.p.i. Mice were followed the next 12 days post-infection (d.p.i.) to measure survival rate. At 9 d.p.i. fecal pellets were collected and the mice dissected to harvest spleen and liver. […]

C. rodentium [2] = assay: C. rodentium infection of Vip-IRES-Cre hM3Dq mice (VIPen activation); type: in vivo, Citrobacter rodentium; conditions: for bacterial dissemination (translocation) induced by VIPen activation / mortality induced by VIPen activation: 250 pg/mouse/day, C. rodentium-infected hM3Dq mice with VIPen activation
Experimental: as §4
C. rodentium strain DBS100 (ATCC51459; American Type Culture Collection) was grown at 37° C. in LB broth to OD600 reading between 0.5 and 0.7. VIP^IRES-CrehM3Dq^fl-stop-fl (VIPen activation) and C57BL/6 mice were inoculated with 200 μl of a bacterial suspension (2×10^9 CFU) by oral gavage. VIP^IRES-Cre hM3Dq^fl-stop-flhM4Di^fl-stop-fl mice (VIPen inhibition) were inoculated with 200 μl of a bacterial suspension (4×10^10 CFU) by oral gavage. For DREADD experiments, CNO treatment started at 1 day post-infection (d.p.i.) until 4 d.p.i. Mice were followed the next 12 days post-infection (d.p.i.) to measure survival rate. At 9 d.p.i. fecal pellets were collected and the mice dissected to harvest spleen and liver. Samples were weighted and minced on sterile deionized water with Triton 0.1% and filtered on a 70 μm cell strainer. The filtered samples were used to measure C. rodentium burden with serial dilutions (triplicates) on MacConkey agar plates.

VIPR2 = biological target: T3, VIPR2 (Mus musculus, UniProt P41588); assay: ILC3 in vitro cell culture with VIPR2 ligands, IL-22 and Sca-1 by flow cytometry; type: cell-based, mice; conditions: IL-23 100 pg/mL, 12 h, different concentrations of ligand
T3 construct: endogenous in cells; host or cells: primary CCR6+ ILC3 sorted from small-intestine lamina propria of C57BL/6 mice
T3 sequence (P41588 23-437): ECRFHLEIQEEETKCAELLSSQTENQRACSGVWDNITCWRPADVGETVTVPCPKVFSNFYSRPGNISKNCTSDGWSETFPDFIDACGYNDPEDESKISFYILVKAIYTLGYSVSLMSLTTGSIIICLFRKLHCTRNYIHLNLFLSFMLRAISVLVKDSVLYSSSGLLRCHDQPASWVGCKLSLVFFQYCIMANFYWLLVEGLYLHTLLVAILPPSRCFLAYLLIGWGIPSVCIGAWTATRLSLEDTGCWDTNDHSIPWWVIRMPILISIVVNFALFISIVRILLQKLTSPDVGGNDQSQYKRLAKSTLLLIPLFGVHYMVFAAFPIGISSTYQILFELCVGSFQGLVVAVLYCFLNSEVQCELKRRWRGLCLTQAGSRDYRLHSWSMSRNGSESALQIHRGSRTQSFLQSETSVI
Experimental: CCR6^+ and CCR6^neg ILC3 (DAPI^negCD3^negCD11c^negCD14^negCD19^negTCRβ^negTCRγ^negNK1.19KLRG1^negCD127^+CD90.2^+) were isolated from small intestine LPLs of C57BL/6 mice using the ARIA II FACS Sorter (BD Biosciences). ILC3 were cultured at 37° C. in flat bottom 96 well plates (10^4 cells/well) in RPMI supplemented with 10% heat-inactivated FBS (Hyclone), 50 U penicillin-streptomycin (Hyclone), 2 mM glutamine (Hyclone), 10 mM HEPES (Hyclone), 1 mM sodium pyruvate (Hyclone) and 50 μM β-mercaptoethanol (Gibco). ILC3 were stimulated with IL-23 (100 pg/mL, R&D systems) and/or VIPR2 ligands (BAY-559837: 1-100 nM, and VIP: 1 nM, […]), washed, incubated in complete media in the presence of Golgi Plug (BD Bioscience) for 4 h (37° C.), and stained for membrane extracellular markers in Staining Buffer (PBS FBS2% EDTA 5 mM) and for intracellular markers using Cytofix/Cytoperm buffer set following manufacturer's protocol (BD Biosciences). Acquisition of cytometric parameters was performed on an LSRII (BD Biosciences). All data were analyzed using FlowJo Software Version 10 (Tree Star).
as §2

[3] = 1 mg/Kg daily 1-4 d.p.i., 2×10^9 CFU, 9 d.p.i., mice positive/total
[4] = listed as recombinant murine IL-22

C[N+]1([O-])CCN(C2=Nc3cc(Cl)ccc3Nc3ccccc32)CC1 [CNO, Clozapine-N-oxide]
ILC3 function (ILC3): does not affect | IL-22+ cells among the CCR6+ ILC3 (hM3Dq): fewer | RegIIIγ mRNA in IECs (hM3Dq): lower | RegIIIγ mRNA expression in the IECs (hM4Di; after VIPen inhibition, 24 h): increased | frequency of IL-22-producing CCR6+ ILC3 (hM4Di; ileum, 24 h following VIPen inhibition): higher frequency | Positive for C. rodentium: liver (C. rodentium [1]): 1/7 | Positive for C. rodentium: spleen (C. rodentium [1]): 1/7 | Positive for C. rodentium: liver (C. rodentium [2]; [3]): 9/9 | Positive for C. rodentium: spleen (C. rodentium [2]; [3]): 9/9

vasoactive intestinal peptide [VIP]
IL-23-induced Sca-1 expression on CCR6+ ILC3 (VIPR2): does not modulate

B1: rmIL-22: recombinant murine IL-22 (protein, UniProt Q9JJY9 34-179, looked up)
Interleukin-22: LPVNTRCKLEVSNFQQPYIVNRTFMLAKEASLADNNTDVRLIGEKLFRGVSAKDQCYLMKQVLNFTLEDVLLPQSDRFQPYMQEVVPFLTKLSNQLSSCHISGDDQNIQKNVRRLKETVKKLGESGEIKAIGELDLLFMSLRNACV
bacterial dissemination (translocation) induced by VIPen activation (C. rodentium [2]): protects against increase | mortality induced by VIPen activation (C. rodentium [2]): protects against increase | bacterial dissemination (translocation) induced by VIPen activation (C. rodentium [2]; [4]): reversed the effect | mortality induced by VIPen activation (C. rodentium [2]; [4]): reversed the effect
